Test results reported in patent publication US8492401B2, “Thiazolopyridine sirtuin modulating compounds” (Sirtris Pharmaceuticals, priority 2008, dated 2013).

Target: T1, SIRT1 (Homo sapiens, UniProt Q96EB6)
T1 sequence (Q96EB6 1-747): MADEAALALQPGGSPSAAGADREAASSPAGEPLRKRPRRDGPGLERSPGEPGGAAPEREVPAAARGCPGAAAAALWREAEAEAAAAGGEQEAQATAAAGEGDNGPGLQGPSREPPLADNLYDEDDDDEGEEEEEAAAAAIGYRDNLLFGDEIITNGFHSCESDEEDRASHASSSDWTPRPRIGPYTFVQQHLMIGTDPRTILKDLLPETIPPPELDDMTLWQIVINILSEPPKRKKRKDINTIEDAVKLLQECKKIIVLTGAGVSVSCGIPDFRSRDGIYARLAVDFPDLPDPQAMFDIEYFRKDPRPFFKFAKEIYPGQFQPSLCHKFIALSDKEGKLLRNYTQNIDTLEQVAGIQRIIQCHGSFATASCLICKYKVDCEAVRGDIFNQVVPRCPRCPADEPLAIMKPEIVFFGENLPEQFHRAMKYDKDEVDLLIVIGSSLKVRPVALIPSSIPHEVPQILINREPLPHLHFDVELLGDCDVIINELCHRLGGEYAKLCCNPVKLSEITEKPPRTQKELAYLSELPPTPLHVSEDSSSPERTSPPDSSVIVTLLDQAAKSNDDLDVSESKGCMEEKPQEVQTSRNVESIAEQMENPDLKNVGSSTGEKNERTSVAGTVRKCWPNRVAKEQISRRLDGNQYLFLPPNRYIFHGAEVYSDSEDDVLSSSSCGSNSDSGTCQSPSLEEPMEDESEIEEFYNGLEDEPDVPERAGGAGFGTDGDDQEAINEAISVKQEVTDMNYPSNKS
Assay: Mass spectrometry based assay to identify modulators (activators) of SIRT1 activity
Format: biochemical
Conditions: 0.5 μM peptide substrate, 120 μM βNAD+, 10 nM SIRT1, 25 minutes at 25° C.; for EC1.5: SIRT1 activation
Source text: A mass spectrometry based assay was used to identify modulators of SIRT1 activity. The mass spectrometry based assay utilizes a peptide having 20 amino acid residues as follows: Ac-EE-K(biotin)-GQSTSSHSK(Ac)NleSTEG-K(5TMR)-EE-NH2 (SEQ ID NO: 1) wherein K(Ac) is an acetylated lysine residue and Nle is a norleucine. The peptide is labeled with the fluorophore 5TMR (excitation 540 nm/emission 580 nm) at the C-terminus. The sequence of the peptide substrate is based on p53 with several modifications. In addition, the methionine residue naturally present in the sequence was replaced with the norleucine because the methionine may be susceptible to oxidation during synthesis and purification.
The mass spectrometry assay is conducted as follows: 0.5 μM peptide substrate and 120 μM βNAD^+ is incubated with 10 nM SIRT1 for 25 minutes at 25° C. in a reaction buffer (50 mM Tris-acetate pH 8, 137 mM NaCl, 2.7 mM KCl, 1 mM MgCl2, 5 mM DTT, 0.05% BSA). Test compounds may be added to the reaction as described above. […] After the 25 minute incubation with SIRT1, 10 μL of 10% formic acid is added to stop the reaction. Reactions are sealed and frozen for later mass spec analysis. Determination of the mass of the substrate peptide allows for precise determination of the degree of acetylation (i.e. starting material) as compared to deacetylated peptide (product).
A control for inhibition of sirtuin activity is conducted by adding 1 μL of 500 mM nicotinamide as a negative control at the start of the reaction (e.g., permits determination of maximum sirtuin inhibition). A control for activation of sirtuin activity is conducted using 10 nM of sirtuin protein, with 1 μL of DMSO in place of compound, to determine the amount of deacetylation of the substrate at a given timepoint within the linear range of the assay. This timepoint is the same as that used for test compounds and, within the linear range, the endpoint represents a change in velocity.
For the above assay, SIRT1 protein was expressed and purified as follows. […] The protein was expressed by induction with 1 mM IPTG as an N-terminal His-tag fusion protein at 18° C. overnight and harvested at 30,000×g. Cells were lysed with lysozyme in lysis buffer (50 mM Tris-HCl, 2 mM Tris[2-carboxyethyl]phosphine (TCEP), 10 μM ZnCl2, 200 mM NaCl) and further treated with sonication for 10 min for complete lysis. The protein was purified over a Ni-NTA column (Amersham) and fractions containing pure protein were pooled, concentrated and run over a sizing column (Sephadex S200 26/60 global). The peak containing soluble protein was collected and run on an Ion-exchange column (MonoQ). Gradient elution (200 mM-500 mM NaCl) yielded pure protein. This protein was concentrated and dialyzed against dialysis buffer (20 mM Tris-HCl, 2 mM TCEP) overnight. The protein was aliquoted and frozen at −80° C. until further use.
Sirtuin modulating compounds that activated SIRT1 were identified using the assay described above and are shown below in Table 1. The EC1.5 values for the activating compounds are represented by A (EC1.5≦1 uM), B (EC1.5>1 and ≦10 uM), or C (EC1.5>10 uM). The percent maximum fold activation is represented by A (Fold activation≧300%), B (Fold Activation≧150% and <300%), or C (Fold Activation<150%).

Structure (SMILES) | FOLD ACT. (percent maximum fold activation) | EC1.5
COCCN1CCN(Cc2cnc3sc(-c4ccccc4NC(=O)c4csc(-c5ccccc5)n4)nc3c2)CC1 [Compound 1, N-(2-(6-((4-(2-methoxyethyl)piperazin-1-yl)methyl)thiazolo[5,4-b]pyridin-2-yl)phenyl)-2-phenylthiazole-4-carboxamide] | A (Fold activation≧300%) | A (EC1.5≦1 uM)
O=C(Nc1ccccc1-c1nc2cc(CN3CCOCC3)cnc2s1)c1csc(-c2ccccc2)n1 [Compound 2, N-(2-(6-(morpholinomethyl)thiazolo[5,4-b]pyridin-2-yl)phenyl)-2-phenylthiazole-4-carboxamide] | A (Fold activation≧300%) | A (EC1.5≦1 uM)
O=C(Nc1ccccc1-c1nc2cc(CN3CCCC3)cnc2s1)c1csc(-c2ccccc2)n1 [Compound 3, 2-phenyl-N-(2-(6-(pyrrolidin-1-ylmethyl)thiazolo[5,4-b]pyridin-2-yl)phenyl)thiazole-4-carboxamide] | B (Fold Activation≧150% and <300%) | A (EC1.5≦1 uM)
COCCCc1sc(-c2ccccc2)nc1C(=O)Nc1ccccc1-c1nc2cc(CN3CCCC3)cnc2s1 [Compound 4, 5-(3-methoxypropyl)-2-phenyl-N-(2-(6-(pyrrolidin-1-ylmethyl)thiazolo[5,4-b]pyridin-2-yl)phenyl)thiazole-4-carboxamide] | B (Fold Activation≧150% and <300%) | A (EC1.5≦1 uM)
COCC#Cc1sc(-c2ccccc2)nc1C(=O)Nc1ccccc1-c1nc2cc(CN3CCCC3)cnc2s1 [Compound 5, 5-(3-methoxyprop-1-ynyl)-2-phenyl-N-(2-(6-(pyrrolidin-1-ylmethyl)thiazolo[5,4-b]pyridin-2-yl)phenyl)thiazole-4-carboxamide] | B (Fold Activation≧150% and <300%) | A (EC1.5≦1 uM)
COCCCc1sc(-c2ccccc2)nc1C(=O)Nc1ccccc1-c1nc2cccnc2s1 [Compound 6, 5-(3-methoxypropyl)-2-phenyl-N-(2-(thiazolo[5,4-b]pyridin-2-yl)phenyl)thiazole-4-carboxamide] | B (Fold Activation≧150% and <300%) | B (EC1.5>1 and ≦10 uM)
COCCN1CCN(CCCc2sc(-c3ccccc3)nc2C(=O)Nc2ccccc2-c2nc3cccnc3s2)CC1 [Compound 7, 5-(3-(4-(2-methoxyethyl)piperazin-1-yl)propyl)-2-phenyl-N-(2-(thiazolo[5,4-b]pyridin-2-yl)phenyl)thiazole-4-carboxamide] | B (Fold Activation≧150% and <300%) | A (EC1.5≦1 uM)
O=C(Nc1ccccc1-c1nc2cccnc2s1)c1nc(-c2ccccc2)sc1CCCN1CCCC1 [Compound 8, 2-phenyl-5-(3-(pyrrolidin-1-yl)propyl)-N-(2-(thiazolo[5,4-b]pyridin-2-yl)phenyl)thiazole-4-carboxamide] | A (Fold activation≧300%) | A (EC1.5≦1 uM)
CC(C)N1CCN(Cc2sc(-c3ccccc3)nc2C(=O)Nc2ccccc2-c2nc3cccnc3s2)CC1 [Compound 9, 5-((4-isopropylpiperazin-1-yl)methyl)-2-phenyl-N-(2-(thiazolo[5,4-b]pyridin-2-yl)phenyl)thiazole-4-carboxamide] | A (Fold activation≧300%) | A (EC1.5≦1 uM)
O=C(Nc1ccccc1-c1nc2cccnc2s1)c1nc(-c2ccccc2)sc1CN1CCOCC1 [Compound 10, 5-(morpholinomethyl)-2-phenyl-N-(2-(thiazolo[5,4-b]pyridin-2-yl)phenyl)thiazole-4-carboxamide] | B (Fold Activation≧150% and <300%) | A (EC1.5≦1 uM)
O=C(Nc1ccccc1-c1nc2cccnc2s1)c1nc(-c2ccccc2)sc1CN1CCCC1 [Compound 11, 2-phenyl-5-(pyrrolidin-1-ylmethyl)-N-(2-(thiazolo[5,4-b]pyridin-2-yl)phenyl)thiazole-4-carboxamide] | C (Fold Activation<150%) | B (EC1.5>1 and ≦10 uM)
